Experimental findings from patent US20260218130A1, “METHOD FOR CULTURING ANIMAL CELLS” (Ajinomoto Co., Inc., priority 2023, published 2026) are described below.

Assay [1] concerns HEK293 cells. Description: Proliferation of HEK293 cells in suspension culture system. The note with it: hinokitiol 500 nM in Basal 10 or in-house medium, 20 days, FIG. 3. It counts as cell-based, human. The procedure: As HEK293, Viral Production Cells 2.0 (Thermo Fisher Scientific: A49784), which is a clonal cell line derived from the HEK293 cell line, was used. The HEK293 cell line is widely known as a cell line derived from human embryonic kidney.
Using a 125 mL Erlenmeyer flask (VIOLAMO, SEF125V), Viral Production Cells 2.0, a clonal cell line derived from the HEK293 cell line, were seeded into 30 ml of Viral Production Medium (Thermo Fisher Scientific: A4817901) supplemented with GlutaMAX™ Supplement (Thermo Fisher Scientific, Cat No. 35050061) to a final concentration of 4 mM.
The cells were cultured with agitation in an incubator set at 37° C. and 8% CO2, and were subcultured twice. Thereafter, the cells were subcultured and cultured in a medium based on 30 mL of Basal 10 (Ajinomoto Healthy Supply, Co., Inc., CELLIST™ Basal media BASAL10) or an in-house medium supplemented with hinokitiol to a final concentration of 500 nM. The process of measuring the viable cell count every 3 or 4 days using a Vi-CELL BLU Cell Viability Analyzer (Beckman Coulter) before subculturing was repeated, and the cells were cultured for a total of 20 days.

In assay [2] the test system is CD8-positive human T cells. In words: Proliferation of CD8-positive human T cells in serum-free medium. It counts as cell-based. The note with it: hinokitiol 0.49 or 0.0049 μM, cell count after 7 days, FIG. 4. The procedure: CD3 Monoclonal Antibody (Thermo Fisher Scientific, Cat No. 16-0037-85) was mixed with PBS and added to a 24-well plate. After incubating at 37° C. for 1 hour, the plate was washed 3 times with PBS. As a base medium, CTS™ OpTmizer™ T Cell Expansion (Thermo Fisher Scientific, Cat No. A104851) supplemented with CTS™ Immune Cell SR (Thermo Fisher Scientific, Cat No. A2596101), 200 mM L-glutamine (Thermo Fisher Scientific, Cat No. 25030081), P/S/Amphotericin B (Fujifilm-Wako, Cat No. 161-23181), and IL2 (PeproTech, Cat No. 200-02) was used. In the coated 24-well plates, medium groups with hinokitiol added as shown in Table 3 were prepared, and CD8+ T cells (LONZA, Cat No. 2W-300) were cultured in each respective group. A cell count was performed after 7 days, and the proliferation rate was calculated.

Assay [3] concerns bovine muscle stem cells. Description: Proliferation of bovine muscle stem cells in serum-free medium. The note with it: FIG. 1. It counts as cell-based. From the text:
Muscle tissue was collected from edible bovine shank meat, and CD56-positive cells were isolated using a Magnetic-Activated Cell Sorting (MACS) system to obtain bovine muscle stem cells. The bovine muscle stem cells obtained in (1-1) were suspended in a serum medium. As the serum medium, a medium was used in which Advanced DMEM (Thermo Fisher Scientific, Cat No. 12491015) was supplemented with 20% FBS (Thermo Fisher Scientific, Cat No. 10270106), 10% horse serum (Thermo Fisher Scientific, Cat No. 16050-130), and 1% GlutaMAX™ Supplement (Thermo Fisher Scientific, Cat No. 35050061). The cell suspension was seeded into a 12-well plate (BD FALCON, Cat #353046) coated with 1 μg/cm^2 fibronectin (Corning, Cat #F2006) at a cell density of 25,000 cells/0.2 mL, and the medium was changed every other day. On the fourth day of culture, the cells were subcultured into a hinokitiol-containing serum-free medium, a hinokitiol- and iron-containing serum-free medium, an iron-containing serum-free medium, a transferrin- and iron-containing serum-free medium, a transferrin-containing serum-free medium, or a serum-free medium not containing hinokitiol and transferrin, and the medium was changed every other day. […] Cell counting and subculturing were performed every 4 days, and the growth rate for two consecutive passages from day 4 to day 12 was calculated.

The test system of assay [4] is porcine subcutaneous preadipocytes (PSPA). Description: Proliferation of porcine subcutaneous preadipocytes (PSPA) in serum-free medium. It counts as cell-based. The note with it: hinokitiol 0.25 or 0.5 μM + FeSO4•7H2O 1 μM, serum-free medium (transferrin-free); 4 days; FIG. 2. The procedure: As the porcine subcutaneous preadipocytes (PSPA), an adipose precursor cell line derived from porcine fetal subcutaneous tissue, described in Nakajima, et al. Biochem Biophys Res Commun. 2003 Sep. 26; 309(3): 702-8, was obtained from RIKEN RCB and used. The porcine subcutaneous preadipocytes (PSPA) from (2-1) were cultured using a serum medium. As the serum medium, a medium was used in which DMEM (Gibco, Cat No. 10313-021) was supplemented with 10% FBS (Thermo Fisher Scientific, Cat No. 10270106), 1% GlutaMAX™ Supplement (Thermo Fisher Scientific, Cat No. 35050061), and 1% Penicillin-Streptomycin (Nacalai Tesque, Cat No. 09367-34). As the serum-free medium, a medium based on the aforementioned E8 medium was used. PSPA were seeded into a 12-well plate at a density of 10,000 cells/cm^2, and the cells were subcultured into a serum medium, a transferrin-containing serum-free medium, or a hinokitiol- and iron-containing serum-free medium (transferrin-free), with medium exchange performed every other day. Cell counting was performed 4 days after the start of culturing, and the fold increase in cell number was calculated.

Structures are written as SMILES.

With `CC(C)c1cccc(=O)c(O)c1` [hinokitiol], the “cell proliferation (viable cell count)” value in assay [1] was “cell proliferation-promoting effect”. Also, the “cell proliferation (fold increase, proliferation rate)” value in assay [2] was “cell proliferation-promoting effect”. Also, in assay [3] (hinokitiol 0.03 or 0.30 μM + FeSO4•7H2O 1.0 or 10.1 μM, serum-free medium, in some cases), the “cell proliferation-promoting effect on enhancing the iron concentration” value was “further improved”. In addition, the “cell proliferation (fold increase, growth rate for two consecutive passages)” value in assay [3] (hinokitiol 0.03 or 0.30 μM in E8-based serum-free medium, transferrin-free, day 4 to day 12) is reported as “cell proliferation-promoting effect”. Besides, the “cell proliferation (fold increase in cell number)” value in assay [4] is on record as “cell proliferation-promoting effect”.
